From ChEMBL document CHEMBL1143248, “Adenosine analogues as inhibitors of P2Y12 receptor mediated platelet aggregation” (Bioorg Med Chem Lett, 2008)

Target: P2Y purinoceptor 12 (Homo sapiens) (UniProt Q9H244)
Assay: Antagonist activity at P2Y12 receptor assessed as platelet aggregation at 30 uM by washed platelet assay
Assay type: functional

Sequence of P2Y purinoceptor 12 (Homo sapiens) (Q9H244 whole entry): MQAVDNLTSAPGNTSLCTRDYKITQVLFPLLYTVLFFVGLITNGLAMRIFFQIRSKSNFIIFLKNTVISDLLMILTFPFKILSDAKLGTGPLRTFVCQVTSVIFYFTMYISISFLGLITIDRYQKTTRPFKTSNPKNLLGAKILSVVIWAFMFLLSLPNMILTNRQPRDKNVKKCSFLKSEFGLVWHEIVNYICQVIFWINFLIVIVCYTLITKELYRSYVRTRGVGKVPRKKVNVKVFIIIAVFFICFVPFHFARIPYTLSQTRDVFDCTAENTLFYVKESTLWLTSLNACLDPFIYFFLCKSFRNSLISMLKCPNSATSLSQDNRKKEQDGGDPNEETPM

Row | inhibition [%] | SMILES
1 | 63 | CCNC(=O)Nc1ncnc2c1ncn2[C@@H]1O[C@H](CSCCO)[C@H]2O[C@H](/C=C/c3ccccc3)O[C@H]21
2 | 70 | CCNC(=O)Nc1ncnc2c1ncn2[C@@H]1O[C@H](CNC/C(C)=C/C(=O)OCC)[C@H]2O[C@H](/C=C/c3ccccc3)O[C@H]21
3 | 57 | CCNC(=O)Nc1ncnc2c1ncn2[C@@H]1O[C@H](CS(=O)(=O)CCO)[C@H]2O[C@H](/C=C/c3ccccc3)O[C@H]21
4 | 65 | CCCS(=O)(=O)C[C@H]1O[C@@H](n2cnc3c(NC(=O)NCC)ncnc32)[C@@H]2O[C@@H](/C=C/c3ccccc3)O[C@@H]21
5 | 70 | CCNC(=O)Nc1ncnc2c1ncn2[C@@H]1O[C@H](CNCc2ccccc2O)[C@H]2O[C@H](/C=C/c3ccccc3)O[C@H]21
6 | 73 | CCNC(=O)Nc1ncnc2c1ncn2[C@@H]1O[C@H](CNCc2nccs2)[C@H]2O[C@H](/C=C/c3ccccc3)O[C@H]21
7 | 90 | CCNC(=O)Nc1ncnc2c1ncn2[C@@H]1O[C@H](CSCCCS(=O)(=O)O)[C@H]2O[C@H](/C=C/c3ccccc3)O[C@H]21
8 | 52 | CCCSC[C@H]1O[C@@H](n2cnc3c(NC(=O)NCC)ncnc32)[C@@H]2O[C@@H](/C=C/c3ccccc3)O[C@@H]21
9 | 76 | CCNC(=O)Nc1ncnc2c1ncn2[C@@H]1O[C@H](CSCC(C)O)[C@H]2O[C@H](/C=C/c3ccccc3)O[C@H]21 (stereo not given in full)
10 | 46 | CCNC(=O)Nc1ncnc2c1ncn2[C@@H]1O[C@H](CN(CC2CC2C(=O)OCC)CC2CC2C(=O)OCC)[C@H]2O[C@H](/C=C/c3ccccc3)O[C@H]21 (stereo not given in full)
11 | 63 | CCNC(=O)Nc1ncnc2c1ncn2[C@@H]1O[C@H](CSC)[C@H]2O[C@H](/C=C/c3ccccc3)O[C@H]21
12 | 53 | CCNC(=O)Nc1ncnc2c1ncn2[C@@H]1O[C@H](CNC(=O)c2[nH]c(C)c(C(C)=O)c2C)[C@H]2O[C@H](/C=C/c3ccccc3)O[C@H]21
13 | 38 | CCCCCCCSC[C@H]1O[C@@H](n2cnc3c(NC(=O)NCC)ncnc32)[C@@H]2O[C@@H](/C=C/c3ccccc3)O[C@@H]21
14 | 14 | CCNC(=O)Nc1ncnc2c1ncn2[C@@H]1O[C@H](CS(=O)(=O)CC(O)CO)[C@H]2O[C@H](/C=C/c3ccccc3)O[C@H]21 (stereo not given in full)

Target: not listed separately
Assay: Antagonist activity at P2Y12 receptor assessed as platelet aggregation by washed platelet assay

Row | IC50 [nM] | SMILES
15 | 16 | CCNC(=O)Nc1ncnc2c1ncn2[C@@H]1O[C@H](COP(=O)(O)O)[C@H]2O[C@H](/C=C/c3ccccc3)O[C@H]21 [REGRELOR DISODIUM]
